Results published in patent publication US20180353461A1, “USE OF CANNABINOIDS AS CERAMIDE-GENERATING ANTICANCER AGENTS IN TUMORS OF THE HEMATOPOIETIC AND LYMPHOID TISSUES” (priority 2014, published 2018).

What was measured:
Format in all cases: cell-based, human
[1] = tested on: T-cells (CD3+); test: Cell viability of T-cells (MTT)
[2] = tested on: MM cell lines MM1.S, MM1.R, RPMI-8226 (RPMI) and U266; test: Cell viability of MM cell lines (MTT / WST-8 assay); settings: 18 h; for cell viability of all MM cell lines tested as compared to untreated control cells: WIN-55 0.5-50 uM, JWH-133 0.05-1 mM
Source text: Human multiple myeloma cell lines MM1.S, MM1.R, RPMI-8226 (RPMI) and U266 were purchased from American Type Culture Collection [(ATCC), LGC Standards, Manassas, USA]. Human primary cells were obtained from MM patients' bone marrow (BM) and healthy donors' peripheral blood (PB). PB samples were collected from buffy coats and leukapheresis products, previously mobilized with granulocyte colony stimulating factor (G-CSF). Hematopoietic progenitor cells (CD34+) were isolated from leukaphesesis samples, and B (CD19+) and T (CD3+) lymphocytes from buffy coats by positive immunomagnetic separation in the AutoMACS pro separator (Miltenyi Biotec, Bergisch Gladbach, Germany). For this purpose CD34-, CD19- and CD3-MACS microbead Human Kit (Miltenyi Biotec, Bergisch Gladbach, Germany). The purity of all isolated cells was higher than 95% in all cases. BM samples were obtained from five MM patients. In all cases, BM plasma cell infiltration was greater than 30%. The different cell subpopuplations from MM patients BM were not separated, but they were identified by flow cytometry using a suitable combination of antibodies: anti-CD64-FITC, anti-CD34-PE, anti-CD56-APC, anti-CD38-APC-H7, and anti-CD45-Pacific Blue (BD Biosciences, San Jose, Calif.).
Except if otherwise indicated, for the viability assays primary cells were incubated 18 hours, with vehicle (with <0.15% DMSO) or cannabinoid. Meanwhile, the time course assays cells were performed at 0, 2, 6, 18 and 24 h. For the analysis of SPT activity, cells were co-incubated for the first 6 hours with the SPT inhibitor, myriocin, and the cannabinoid, WIN-55 or JWH-133.
The working concentrations of cannabinoids were determined by dose-response curves (data not shown) and selected within the linear range between observed safe and hazardous levels. […]
Cell viability of cell lines and CD34+, CD19+ and CD3+ cells was measured using the Cell Counting Kit-8 (Dojindo Molecular Technologies, Gaithersburg, Md.). This assay is based on the reduction of salt WST-8 by a mitochondrial dehydrogenase in viable cells, resulting in a colored formazan product that can be measured spectrometrically at 450 nm. […] After treatment, 10 ul salt WST-8 [2-(4-lodophenyl)-3-(4-nitrophenyl)-5-(2,4-disulfophenyl)-2H-tetrazolium] was added to each well and incubated for an additional 2 h at 37° C., and then the absorbance of generated formazan was measured in a plate reader Multiskan™ Go Microplate (Thermo Fisher Scientific, Waltham, Mass., USA).
Firstly, we assessed the effect of cannabinoids WIN-55 and JWH-133 on cell viability. To this end, the cells were treated with increasing concentrations of cannabinoids, WIN-55 (0.5-50 uM) and JWH-133 (0.05-1 mM), for 18, 48 and 96 hours, and viability was analyzed by MTT assays and flow cytometry. […]

[3] = tested on: HL60 cells; test: Western blot of signaling pathways (MAPKs, Akt) in HL60 cells
Experimental: Protein analyses were performed by Western blot in several sets of assays: expression pattern of CBs-receptors in AML cell lines and primary cells, and time course after treatment with cannabinoids in AML cell lines.
Cells were solubilized with ice-cold lysis buffer containing 2% ASB-14 (CalbioChem, San Diego, Calif., USA), 1% Nonidet P-40 (Ipegal®), 137 mM NaCl, 20 mM Tris-HCl pH 7.5 at 4° C. (all from Sigma-Aldrich), 2 mM Na3VO4, 20 mM NaF (New England BioLabs Inc., Ipswich, Mass., USA), 2 mM DTT (AppliChem, Darmstadt, Germany), protease inhibitor cocktail (Roche Diagnostics GmbH, Mannheim, Germany), and 10 ul Nuclease Mix (Amersham GE Healthcare, Uppsala, Sweden). Insoluble materials were removed by centrifugation at 13,000×g for 15 min at 4° C. Protein content was determined by Pierce® Microplate BCA Protein Assay kit-Reducing Agent Compatible (Thermo Fisher Scientific).
Extracted proteins (15-25 ug/well) were separated by sodium dodecyl sulfate-polyacrylamide gel electrophoresis (SDS/PAGE) in pre-cast polyacrylamide gels AnykD (Bio-Rad Laboratories, Hercules, Calif., USA) under reducing and denaturing conditions. Electrophoretic run was performed at a constant current of 15 mA per gel in a Mini-Protean® Tetra Cell (Bio-Rad Laboratories) and were electrophoretically transferred onto PVDF membranes using Trans-Blot® Turbo™ System (Bio-Rad Laboratories). Blocking was performed with 2% bovine serum albumin [(BSA), Santa Cruz Biotechnology] in Tween-Tris buffer saline (TTBS). Membranes were incubated overnight at 4° C. with corresponding primary antibody in TTBS.
Detection was performed using Western Blotting Luminol Reagent (Santa Cruz Biotechnology).
Signaling pathways targeted by cannabinoids in leukemic cells. To get further insights into the mechanisms of cannabinoids-induced apoptosis, we assessed the expression profile of phosphorylated-JNK, -Erk1/2, -p38 MAPK and -Akt by Western blot.

Compound | viability of T-cells [1] | sensitivity pattern of the MM cell lines [2] | cell viability of all MM cell lines tested as compared to untreated control cells [2] | p-Erk1/2 ([3]; HL60, WIN-55 50 uM) | p-Akt ([3]; HL60, time-dependent) | p-p38 MAPK ([3]; HL60, time-dependent)
CCCC(C)(C)c1ccc2c(c1)OC(C)(C)[C@@H]1CC=C(C)C[C@@H]21 [JWH-133, (6aR,10aR)-3-(1,1-Dimethylbutyl)-6a,7,10,10a-tetrahydro-6,6,9-trimethyl-6H-dibenzo [b,d] pyran] | remained unaffected | decreasing from MM1.R, RPMI, MM1.S to U266 | significantly reduced | – | – | –
CS(=O)(=O)O.Cc1c(C(=O)c2cccc3ccccc23)c2cccc3c2n1[C@H](CN1CCOCC1)CO3 [WIN-55, (R)-(+)-[2,3-dihydro-5-methyl-3-(4-morpholinylmethyl)-pyrrolo-[1,2,3]-1,4-benzoxazin-6-yl]-1-naphthalenylmethanone mesylate] | remained unaffected | MM1R and RPMI were the most sensitive | significantly reduced | slightly up-regulated | significantly downregulated | moderately downregulated
